Reference: patent publication US11285156B2, “Substituted piperazines as KRAS G12C inhibitors” (Amgen Inc., priority 2018, dated 2022)
Where two headings read alike, the source gives them in different places.

Columns and labels:
[1] = test system: Phosphorylation of ERK1/2 in MIA PaCa-2 cells; experiment: Phospho-ERK1/2 MSD assay in MIA PaCa-2 cells; type: cell-based; settings: read-out: p-ERK IC50 (2 h, MiaPaCa-2; μM)
Summary of the method: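 Phospho-ERK1/2 measured by MSD electrochemiluminescence kit in RIPA lysates of MIA PaCa-2 cells. Cells were treated with compound titrations for 2 or 4 h at 37 °C, 5% CO2, followed by a 10 min pulse of 10 ng/mL EGF.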

[2] = test system: Phosphorylation of ERK1/2 in A549 cells; experiment: Phospho-ERK1/2 MSD assay in A549 cells; type: cell-based; settings: read-out: p-ERK IC50 (2 h, A549; μM)
Summary of the method: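 Readout: MSD phospho-ERK1/2 signal after compound (2 or 4 h) and 10 min EGF stimulation at 10 ng/mL.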

[3] = target: GDP-bound KRAS protein (aa 1-169), containing both G12C and C118A amino acid substitutions (Homo sapiens (Human), UniProt P01116, C118A/G12C); experiment: Coupled nucleotide exchange assay (SOS-mediated nucleotide exchange, AlphaScreen); type: biochemical; settings: read-out: Coupled exchange IC50 (5 min; μM); 5 min compound pre-incubation
[4] = 2 h compound treatment, MIA PaCa-2 cells, EGF stimulated
[5] = 2 h compound treatment, A549 cells, EGF stimulated
[6] = Homo sapiens, MIA PaCa-2, 2 h, 2 h compound treatment, MIA PaCa-2 cells, EGF stimulated
[7] = Homo sapiens, A549, 2 h, 2 h compound treatment, A549 cells, EGF stimulated

GDP-bound KRAS protein (aa 1-169), containing both G12C and C118A amino acid substitutions, sequence (P01116 other isoform, or with tags, fused parts or gaps G12C/C118A): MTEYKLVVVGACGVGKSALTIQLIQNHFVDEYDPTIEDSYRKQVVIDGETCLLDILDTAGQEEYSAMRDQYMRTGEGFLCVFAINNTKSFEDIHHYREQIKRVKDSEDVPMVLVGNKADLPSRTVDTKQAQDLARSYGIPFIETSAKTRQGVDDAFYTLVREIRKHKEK

| SMILES | IC50 [1, 4] [µM] | IC50 [2, 5] [µM] | IC50 [3] [µM] | IC50 [1, 6] [µM] | IC50 [2, 7] [µM] | IC50 ([1]; Homo sapiens, MIA PaCa-2, 2 h) [µM] | IC50 ([2]; Homo sapiens, A549, 2 h) [µM] |
| --- | --- | --- | --- | --- | --- | --- | --- |
| C=CC(=O)N1C[C@H](C)N(c2nc(=O)n(-c3c(C(C)C)ccnc3C(C)C)c3nc(-c4ccccc4F)c(Cl)cc23)C[C@H]1C [Example 125-1, 4-((2S,5R)-4-Acryloyl-2,5-dimethylpiperazin-1-yl)-6-chloro-1-(2,4-diisopropylpyridin-3-yl)-7-(2-fluorophenyl)pyrido[2,3-d]pyrimidin-2(1H)-one] | 0.055 | > 7.5 | 0.028 |  |  |  |  |
| C=CC(=O)N1[C@H](C)CN(c2nc(=O)n(-c3c(C(C)C)ccnc3C(C)C)c3nc(-c4ccccc4C)c(Cl)cc23)C[C@@H]1C [Example 125-11, 6-Chloro-1-(2,4-diisopropyl-3-pyridyl)-4-[(3R,5S)-3,5-dimethyl-4-prop-2-enoyl-piperazin-1-yl]-7-(o-tolyl)pyrido[2,3-d]pyrimidin-2-one] | 0.187 | > 7.5 | 0.091 |  |  |  |  |
| C=CC(=O)N1C[C@H](C)N(c2nc(=O)n(-c3c(C)ccnc3C(C)C)c3nc(-c4cccc(F)c4NC(C)=O)c(Cl)cc23)C[C@H]1C [Example 129-12, N[2-(6-Chloro-4-[(2S,5R)-2,5-dimethyl-4-prop-2-enoyl-piperazin-1-yl]-1-(2-isopropyl-4-methyl-3-pvridyl)-2-oxo-pyrido[2,3-d]pyrimidin-7-yl]-6-fluoro-phenyl]acetamide] |  |  | 0.167 | 0.39 | > 7.5 |  |  |
| C=CC(=O)N1C[C@H](C)N(c2nc(=O)n(-c3c(CN4CCCC4)ccnc3C(C)C)c3nc(-c4ccccc4C(C)C)c(Cl)cc23)C[C@H]1C [Example 141-3, 6-Chloro-4-[(2S,5R)-2,5-dimethyl-4-prop-2-enoyl-piperazin-1-yl]-7-(2-isopropylphenyl)-1-[2-isopropyl-4-(pyrrolidin-1-ylmethyl)-3-pyridyl]pyrido[2,3-d]pyrimidin-2-one] |  |  | 0.197 | 0.331 | > 7.5 |  |  |
| C=CC(=O)N1CCN(c2nc(=O)n(CC(C)(C)C)c3nc(-c4ccccc4F)c(Cl)cc23)CC1CC#N (stereo not drawn) [Example 145-1, 2-[4-[6-Chloro-1-(2,2-dimethylpropyl)-7-(2-fluorophenyl)-2-oxo-pyrido[2,3-d]pyrimidin-4-yl]-1-prop-2-enoyl-piperazin-2-yl]acetonitrile] | 10 |  | 2.07 |  | 5.75 |  |  |
| C=CC(=O)N1CCN(c2nc(=O)n(CC(C)(C)C)c3nc(-c4ccccc4F)c(Cl)cc23)C(CC#N)C1 (stereo not drawn) [Example 145-3, 2-[1-[6-Chloro-1-(2,2-dimethypropyl)-7-(2-fluorophenyl)-2-oxo-pyrido[2,3-d]pyrimidin-4-yl]-4-prop-2-enoyl-piperazin-2-yl]acetonitrile] |  |  | 3.82 | 10 | 4.41 |  |  |
| C=CC(=O)N1C[C@H](C)N(c2nc(=O)n3c4nc(c(Cl)cc24)-c2ccccc2OC/C=C/Cc2ccccc2-3)C[C@H]1C [Example 146-4, 20-chloro-23-((2S,5R)-2,5-dimethyl-4-(2-propenoyl)-1-piperazinyl)-12-oxa-1,24,27-triazapentacyclo[17.6.2.0~2,7~.0~13,18~.0~22,26~]heptacosa-2,4,6,9,13,15,17,19,21,23,26-undecaen-25-one] |  |  | 8.13 | 4.19 | > 7.5 |  |  |
| C=CC(=O)N1C[C@H](C)N(c2nc(=O)n(-c3c(C(C)C)ncnc3C(C)C)c3nc(-c4ccc(F)cc4F)c(F)cc23)C[C@H]1C [Example 153, 7-(2,4-Difluorophenyl)-1-(4,6-diisopropylpyrimidin-5-yl)-4-[(2S,5R)-2,5-dimethyl-4-prop-2-enoyl-piperazin-1-yl]-6-fluoro-pyrido[2,3-d]pyrimidin-2-one] |  |  | 0.38 | 0.264 | > 7.5 |  |  |
| C=CC(=O)N1C[C@H](C)N(c2nc(=O)n(-c3c(C(C)C)nc(OC)nc3C(C)C)c3nc(-c4ccccc4F)c(Cl)cc23)C[C@H]1C [Example 154, 6-Chloro-1-(4,6-diisopropyl-2-methoxy-pyrimidin-5-yl)-4-[(2S,5R)-2,5-dimethyl-4-prop-2-enoyl-piperazin-1-yl]-7-(2-fluorophenyl)pyrido[2,3-d]pyrimidin-2-one] |  |  | 0.062 | 0.049 | 6.96 |  |  |
| C=CC(=O)N1C[C@H](C)N(c2nc(=O)n(-c3c(C(C)C)nc(C#N)nc3C(C)C)c3nc(-c4ccccc4F)c(Cl)cc23)C[C@H]1C [Example 155, 5-[6-Chloro-4-[(2S,5R)-2,5-dimethyl-4-prop-2-enoyl-piperazin-1-yl]-7-(2-fluorophenyl)-2-oxo-pyrido[2,3-d]pyrimidin-1-yl]-4,6-diisopropyl-pyrimidine-2-carbonitrile] |  |  | 0.104 | 0.063 | 2.59 |  |  |
| C=CC(=O)N1C[C@H](C)N(c2nc(=O)n(-c3c(C(C)C)nc(OCCOC)nc3C(C)C)c3nc(-c4ccccc4F)c(Cl)cc23)C[C@H]1C [Example 156, 4-((2S,5R)-4-Acryloyl-2,5-dimethylpiperazin-1-yl)-6-chloro-1-(4,6-diisopropyl-2-(2-methoxyethoxy)pyrimidin-5-yl)-7-(2-fluorophenyl)pyrido[2,3-d]pyrimidin-2(1H)-one] |  |  | 0.369 | 0.148 | > 7.5 |  |  |
| C=CC(=O)N1C[C@H](C)N(c2nc(=O)n(-c3c(C(C)C)nc(OCCN(C)C)nc3C(C)C)c3nc(-c4ccccc4F)c(Cl)cc23)C[C@H]1C [Example 157, 4-((2S,5R)-4-Acryloyl-2,5-dimethylpiperazin-1-yl)-6-chloro-1-(2-(2-(dimethylamino)ethoxy)-4,6-diisopropylpyrimidin-5-yl)-7-(2-fluorophenyl)pyrido[2,3-d]pyrimidin-2(1H)-one] |  |  | 0.064 | 0.07 | > 7.5 |  |  |
| C=CC(=O)N1C[C@H](C)N(c2nc(=O)n(-c3c(C(C)C)nc(S(=O)(=O)CCC)nc3C(C)C)c3nc(-c4ccccc4F)c(Cl)cc23)C[C@H]1C [Example 158, 4-((2S,5R)-4-Acryloyl-2,5-dimethylpiperazin-1-yl)-6-chloro-1-(4,6-diisopropyl-2-(propylsulfonyl)pyrimidin-5-yl)-7-(2-fluorophenyl)pyrido[2,3-d]pyrimidin-2(1H)-one] |  |  | 0.189 | 0.191 | 3.83 |  |  |
| C=CC(=O)N1C[C@H](C)N(c2nc(=O)n(-c3c(C(C)C)nc(C=C)nc3C(C)C)c3nc(-c4ccccc4F)c(Cl)cc23)C[C@H]1C [Example 159, 4-((2S,5R)-4-Acryloyl-2,5-dimethylpiperazin-1-yl)-6-chloro-1-(4,6-diisopropyl-2-vinylpyrimidin-5-yl)-7-(2-fluorophenyl)pyrido[2,3-d]pyrimidin-2(1H)-one] |  |  | 0.046 | 0.119 | 3.04 |  |  |
| C=CC(=O)N1C[C@H](C)N(c2nc(=O)n(-c3c(C(C)C)nc(CN4CCC4)nc3C(C)C)c3nc(-c4ccccc4F)c(Cl)cc23)C[C@H]1C [Example 161, 1-[2-(Azetidin-1-ylmethyl)-4,6-diisopropyl-pyrimidin-5-yl]-6-chloro-4-[(2S,5R)-2,5-dimethyl-4-prop-2-enoyl-piperazin-1-yl]-7-(2-fluorophenyl)pyrido[2,3-d]pyrimidin-2-one] |  |  | 0.294 |  |  | 0.061 | > 7.5 |
| C=CC(=O)N1C[C@H](C)N(c2nc(=O)n(-c3c(C(C)C)nc(CN4CCOCC4)nc3C(C)C)c3nc(-c4ccccc4F)c(Cl)cc23)C[C@H]1C [Example 162, 6-Chloro-1-[4,6-diisopropyl-2-(morpholinomethyl)pyrimidin-5-yl]-4-[(2S,5R)-2,5-dimethyl-4-prop-2-enoyl-piperazin-1-yl]-7-(2-fluorophenyl)pyrido[2,3-d]pyrimidin-2-one] |  |  | 0.133 | 0.078 | > 7.5 |  |  |
| C=CC(=O)N1C[C@H](C)N(c2nc(=O)n(-c3c(C(C)C)nc(CN4CCCC4)nc3C(C)C)c3nc(-c4ccccc4F)c(Cl)cc23)C[C@H]1C [Example 163, 6-Chloro-1-[4,6-diisopropyl-2-(pyrrolidin-1-ylmethyl)pyrimidin-5-yl]-4-[(2S,5R)-2,5-dimethyl-4-prop-2-enoyl-piperazin-1-yl]-7-(2-fluorophenyl)pyrido[2,3-d]pyrimidin-2-one] |  |  | 0.127 | 0.055 | > 7.5 |  |  |
| C=CC(=O)N1C[C@H](C)N(c2nc(=O)n(-c3c(C(C)C)nc(C)nc3C(C)C)c3nc(-c4ccccc4F)c(Cl)cc23)C[C@H]1C [Example 167, 6-Chloro-1-(4,6-diisopropyl-2-methyl-pyrimidin-5-yl)-4-[(2S,5R)-2,5-dimethyl-4-prop-2-enoyl-piperazin-1-yl]-7-(2-fluorophenyl)pyrido[2,3-d]pyrimidin-2-one] |  |  | 0.052 | 0.083 | > 7.5 |  |  |
| C=CC(=O)N1C[C@H](C)N(c2nc(=O)n(-c3c(C(C)C)nc(C4CC4)nc3C(C)C)c3nc(-c4ccccc4F)c(Cl)cc23)C[C@H]1C [Example 168, 6-Chloro-1-(2-cyclopropyl-4,6-diisopropyl-pyrimidin-5-yl)-4-[(2S,5R)-2,5-dimethyl-4-prop-2-enoyl-piperazin-1-yl]-7-(2-fluorophenyl)pyrido[2,3-d]pyrimidin-2-one] |  |  | 0.096 | 0.198 | 4.34 |  |  |
